Assay results: ChEMBL document CHEMBL3507680, “University of Dundee, Gates Library screen for HepG2 cell viability”

Test: Human HepG2 cell viability assay in 384 well format
Type: toxicity, cell-based
Design: dose 125 nL, time 70.5 hour; cytotoxicity at 70.5 h: concentration not given beside the values
Conditions: HepG2 cells, read-out: Inhibition

Work on `O=C(COCc1nc(-c2ccncc2)no1)NC1CCCCC1` yielded a cytotoxicity at 70.5 h of -2.53%.
For `COc1ccc(OC)c(C(C)Nc2nc3c(C)nn(C)c3c(=O)n2C)c1` (stereo unspecified), the cytotoxicity at 70.5 h was 12.4%.
For `CCCNC(=O)C(C)n1cc(Br)cn1` (stereo unspecified), the cytotoxicity at 70.5 h was -11.8%.
In the case of `COCCNC(=O)C(C)n1cc(Br)cn1` (stereo unspecified), the cytotoxicity at 70.5 h is reported as -15.1%.
With `CCn1nc(C)c2nc(C(C)C)nc(N3CCCCC3)c21` the cytotoxicity at 70.5 h was -11.3%.
Molecule `CSCc1cccc(S(=O)(=O)NCCCn2ccnc2)c1` has a cytotoxicity at 70.5 h of -5.18%.
In the case of `CCN1CCN(S(=O)(=O)c2cc(Cl)c(Cl)cc2C)CC1`, the cytotoxicity at 70.5 h is reported as -2.4%.
For `Cc1nccn1CC(=O)N1CC(Cc2nccc3ccn(C)c23)C1`, the cytotoxicity at 70.5 h was -9.67%.
In the case of `CCn1cc(CN2C[C@@H]3CCCN3C[C@H]2CCSC)cn1`, the cytotoxicity at 70.5 h is reported as -7.68%.
Molecule `Cc1cc(CCC(N)=O)cc(C2CCCN2Cc2ccnn2C)n1` (stereo unspecified) has a cytotoxicity at 70.5 h of -6.78%.
Work on `Cc1nc(C2CN(C)CCO2)cc(N2CCC(C(N)=O)CC2)n1` (stereo unspecified) yielded a cytotoxicity at 70.5 h of -10.6%.
Work on `Cc1nc(Nc2ccccn2)cc(C2CCCN2C2CCOCC2)n1` (stereo unspecified) yielded a cytotoxicity at 70.5 h of -10.7%.
For `CCC(=O)N1CCC(c2cc(Nc3ncccn3)nc(C)n2)C1` (stereo unspecified), the cytotoxicity at 70.5 h was -10.9%.
Molecule `CC(=O)N1CCC(N2CC(Cc3nccc4ccn(C)c34)C2)CC1` has a cytotoxicity at 70.5 h of -6.03%.
Work on `Cc1cc(N2CCCC2c2cc(Nc3cnccn3)nc(C)n2)ncn1` (stereo unspecified) yielded a cytotoxicity at 70.5 h of -11.4%.
`CC(=O)N1CCCC(c2ccc(C(N)=O)cn2)C1` (stereo unspecified) showed a cytotoxicity at 70.5 h of -8.88%.
In the case of `CC(C)S(=O)(=O)N1CCC(c2[nH]ncc2S(C)(=O)=O)C1` (stereo unspecified), the cytotoxicity at 70.5 h is reported as -2.31%.
Molecule `CN(C)C(=O)CN1CCCC(CCCc2ccccn2)(C(N)=O)C1` (stereo unspecified) has a cytotoxicity at 70.5 h of 10.1%.
In the case of `Cc1cccc(CN2CCCC2(C(N)=O)c2cnccn2)n1` (stereo unspecified), the cytotoxicity at 70.5 h is reported as 19%.
For `CNCC(=O)N1CCCC(c2ccnc(Nc3cnccn3)n2)C1` (stereo unspecified), the cytotoxicity at 70.5 h was -9.17%.
With `CN1CCC(Cc2cc(Nc3ccccn3)ncn2)CC1` the cytotoxicity at 70.5 h was 10.1%.
Molecule `Cc1c(C2CCCN(C(=O)c3cccnc3)C2)n2c(nc1=O)CCC2` (stereo unspecified) has a cytotoxicity at 70.5 h of -8.11%.
Molecule `CNc1nccnc1C1CCN(C(C)C)CC1` has a cytotoxicity at 70.5 h of 12.4%.
With `CN(C)C(=O)CN1CCCC1c1nccnc1Nc1ccccn1` (stereo unspecified) the cytotoxicity at 70.5 h was -8.51%.
`CNc1cc(N2CCC(O)(CNC(=O)c3ccc(C)nc3)C2)ncn1` (stereo unspecified) gave a cytotoxicity at 70.5 h of -6.58%.
For `CN(C)c1cncc(C2CCN(CC(N)=O)CC2)n1`, the cytotoxicity at 70.5 h was -0.457%.
For `O=C(Cn1ccnc1)N1C[C@@H]2CC[C@H](Oc3ccccc3F)[C@@H]2C1`, the cytotoxicity at 70.5 h was 10.9%.
Work on `Cc1noc(C)c1-c1cncc(CC2CCN(C(=O)c3cc[nH]n3)C2)n1` (stereo unspecified) yielded a cytotoxicity at 70.5 h of -4.86%.
For `Cc1nnsc1C(=O)N1CCCC(n2nnc3cc(F)ccc32)C1` (stereo unspecified), the cytotoxicity at 70.5 h was -5.58%.
Work on `O=C(c1n[nH]cc1Cl)N1CCCC(n2nnc3cc(F)ccc32)C1` (stereo unspecified) yielded a cytotoxicity at 70.5 h of -5.16%.
In the case of `Cc1nn(C)cc1CN1CCc2nc(-c3cccnc3)nc(O)c2C1`, the cytotoxicity at 70.5 h is reported as -3.92%.
Work on `CCn1ncc(CN2CCc3nc(-c4cccnc4)nc(O)c3C2)c1C` yielded a cytotoxicity at 70.5 h of 9.93%.
For `Cc1ccc(O)c(CN2CCc3nc(-c4cccnc4)nc(O)c3C2)c1`, the cytotoxicity at 70.5 h was -5.78%.
For `Cc1cc(-c2cnc(NC3CC3)nc2-c2ccoc2C)on1`, the cytotoxicity at 70.5 h was -5.1%.
Work on `Cc1cc(-c2cnc(NC3CC3)nc2-c2ccoc2)on1` yielded a cytotoxicity at 70.5 h of 2.18%.
Molecule `Cc1ncc(CN2CCc3c(nc(-c4ccccn4)[nH]c3=O)C2)n1C` has a cytotoxicity at 70.5 h of -8.75%.
Work on `Cc1n[nH]c(C)c1-c1nccnc1CC1CCN(S(C)(=O)=O)C1` (stereo unspecified) yielded a cytotoxicity at 70.5 h of -7.83%.
Molecule `Cc1n[nH]c(C)c1-c1nccnc1CC1CCCN(C)C1` (stereo unspecified) has a cytotoxicity at 70.5 h of -7.42%.
Molecule `CN(C)c1cncc(C2CCN(CC3(O)CCCCC3)CC2)n1` has a cytotoxicity at 70.5 h of 25.1%.
`CC(=O)N1CCCC1c1cccc(NCc2ccccc2F)n1` (stereo unspecified) gave a cytotoxicity at 70.5 h of -1.09%.
`O=C(C1CCCC1)N1CCOC(c2nc(-c3ncccn3)no2)C1` (stereo unspecified) showed a cytotoxicity at 70.5 h of -4.9%.
`Cc1cc(CCC(=O)Nc2nncs2)nc(C2CCCN2)n1` (stereo unspecified) gave a cytotoxicity at 70.5 h of 1.25%.
Molecule `O=C(NCCn1nc(C2CCNC2)c2cccnc21)C1CC1` (stereo unspecified) has a cytotoxicity at 70.5 h of -1.28%.
Work on `O=C(NCCn1nc(C2CCNC2)c2cccnc21)C1CCC1` (stereo unspecified) yielded a cytotoxicity at 70.5 h of 2.22%.
Work on `COCC(=O)N1CCCC(c2cc(C(F)F)n3ncnc3n2)C1` (stereo unspecified) yielded a cytotoxicity at 70.5 h of -2.53%.
In the case of `Cc1nc(Nc2cnccn2)cc(C2CCN(CCO)C2)n1` (stereo unspecified), the cytotoxicity at 70.5 h is reported as -9.95%.
